What all share (format): cell-based
Assay [1] relates to MKN1 (PI3Kα E545K mutant) cells. Nature of the assay: Inhibition of pAKT formation, alphaLISA SureFire Ultra AKT 1/2/3 (pS473), MKN1 cells. As to conditions: Homo sapiens. A digest of the protocol: (§1)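 Cells seeded in HBSS (SKBR3 12,000/well, MKN1 24,000/well) and dosed immediately, 10-point 1:4 series from […], for about 1 h or 24 h at 37 °C. pAKT S473 by alphaLISA after lysis; signal normalised to alpelisib and DMSO controls, IC50 by four-parameter fit.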
(In general: In Alpha technology, singlet oxygen from a donor bead excites a nearby acceptor bead.)

The test system is the same in assay [2]. Description: CellTiter-Glo 2.0 luminescent cell viability assay, 72 hours, MKN1 cells. To be noted: Homo sapiens. The protocol:
This Example illustrates that exemplary compounds of the present invention decrease the viability of cells.
The ability of a compound of Formula (I) to decrease the viability of cells was measured using CellTiter-Glo 2.0 (CTG) Luminescent Cell Viability Assay (#G9241) obtained from Promega (Madison, WI).
To prepare assay plates for viability assays, cells were trypsinized, resuspended in fresh media, and viable cells were counted utilizing trypan blue exclusion. T47D, SKBR3, or MKN1 cells were seeded at 1000 cells in 30 μl per well in a solid white flat bottom 384 cell culture plate (Perkin Elmer #6007680) and incubated at 37° C. overnight.
Assay day 1, cells were dosed using an Echo Liquid Handler (Beckman Coulter) with compounds at a 10 um starting concentration and serially diluted (1:4) for a total of 10 concentrations. Cells were incubated for approximately 72 hours with the compounds (solubilized in DMSO) at 37° C. After 72 hours of treatment, cell plates were equilibrated to room temperature before adding 15 μl of CTG to each well, plates were then covered in aluminum foil to protect from light, incubated at room temperature for 30 minutes on a microtiter plate shaker, and luminescence readings were collected using a CLARIOstar microplate reader (BMG Labtech, Germany). Percent of vehicle control values were plotted as log (inhibitor) vs. response-Variable slope (four parameters) for curve fitting and IC50 values were determined using XLfit.

The subject of assay [3] is SKBR3 (PI3Kα wild type) cells. Nature of the assay: Inhibition of pAKT formation, alphaLISA SureFire Ultra AKT 1/2/3 (pS473), SKBR3 cells. As to conditions: Homo sapiens, SK-BR-3; Inhibition of pAKT in SKBR3 (PI3Kα wild type) cells; read-out: SKBR3 (WT) pAKT IC50 (nM) (H1047R mutant) IC50. A digest of the protocol:
as §1

Assay [4] has as its system T47D (PI3Kα H1047R mutant) cells. Nature of the assay: Inhibition of pAKT formation, alphaLISA SureFire Ultra AKT 1/2/3 (pS473), T47D cells. To be noted: Homo sapiens, T47D. The method in brief:
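AKT Ser473 phosphorylation was quantified by alphaLISA SureFire Ultra after roughly 1 h or 24 h compound exposure at 37 °C. Cells were T47D (12,000/well in HBSS), treated with a 10-point 1:4 series starting at 10.4 μM. Percent of control used alpelisib background and DMSO reference, and IC50 came from four-parameter logistic fitting.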

Assay [5] has the same test system. Description: CellTiter-Glo 2.0 luminescent cell viability assay, 72 hours, T47D cells. As to conditions: Homo sapiens, T47D, 72 h. A digest of the protocol:
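Viability was measured by CellTiter-Glo 2.0 luminescence after approximately 72 h of compound exposure at 37° C. Plating was 1000 cells per well the day before dosing, with ten 1:4 dilutions from a 10 µM top concentration. Values as percent of vehicle were fitted by variable-slope log(inhibitor) regression to give IC50.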
(ATP-based viability assays read luminescence as a measure of living cells.)

Assay [6] concerns SKBR3 (PI3Kα wild type) cells. Description: CellTiter-Glo 2.0 luminescent cell viability assay, 72 hours, SKBR3 cells. To be noted: Homo sapiens, SK-BR-3, 72 h. A digest of the protocol:
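Viability measured via CTG luminescence following roughly 72 hours of compound exposure at 37° C. Dosing used a 10 um starting concentration diluted 1:4 over 10 points; percent-of-vehicle data fitted with a variable-slope four-parameter model for IC50.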

[7] abbreviates: MKN-1, MKN1 (PI3Kα E545K mutant) cells, inhibition of pAKT (pS473) formation, approximately one hour or 24 hours treatment, read-out: MKN1 (E545K) pAKT IC50.
Where [8] appears, read: MKN-1, MKN1 (PI3Kα E545K mutant) cells, CellTiter-Glo, approximately 72 hours, read-out: MKN1 (E545K) Viability IC50.
Where [9] appears, read: T47D (PI3Kα H1047R mutant) cells, inhibition of pAKT (pS473) formation, approximately one hour or 24 hours treatment, read-out: T47D pAKT (H1047R mutant) IC50.
The mark [10] stands for this setting: T47D (PI3Kα H1047R mutant) cells, CellTiter-Glo, approximately 72 hours, read-out: T47D (H1047R mutant) Viability IC50.
[11] abbreviates: SKBR3 (PI3Kα wild type) cells, CellTiter-Glo, approximately 72 hours, read-out: SKBR3 (WT) Viability IC50.
Where [12] appears, read: MKN-1, read-out: MKN1 (E545K) pAKT IC50 (nM).
Where [13] appears, read: MKN-1, 72 h, read-out: MKN1 (E545K) Viability IC50 (nM).
[14] abbreviates: read-out: T47D pAKT (H1047R mutant) IC50 (nM).
[15] abbreviates: read-out: T47D (H1047R mutant) Viability IC50 (nM).
[16] abbreviates: read-out: SKBR3 (WT) Viability IC50 (nM).

Each structure is given as a SMILES string.

The record followed here is patent US20260078120A1, “SUBSTITUTED PYRIDOPYRIMIDINONES” (MIRATI THERAPEUTICS, INC., priority 2022, published 2026).

For orientation: IC50 means the concentration that inhibits the measured activity by half. As for `C=CC(=O)NC(C)c1cc(C)cn2c(=O)cc(N3CCCCC3)nc12` (stereo not drawn) [Example 4-1, N-(1-(7-methyl-4-oxo-2-(piperidin-1-yl)-4H-pyrido[1,2-a]pyrimidin-9-yl)ethyl)acrylamide], the IC50 in assay [1] (setting [7]), in assay [2] (setting [8]), in assay [3], in assay [4] (setting [9]), in assay [5] (setting [10]) and in assay [6] (setting [11]) was above 10000 nM throughout.

For the molecule `C=CC(=O)N(C)C(C)c1cc(C)cn2c(=O)cc(N3CCCCC3)nc12` (stereo not drawn) [Example 4-2, N-methyl-N-(1-(7-methyl-4-oxo-2-(piperidin-1-yl)-4H-pyrido[1,2-a]pyrimidin-9-yl)ethyl)acrylamide], the IC50 in assay [1] (setting [7]), in assay [2] (setting [8]), in assay [3], in assay [4] (setting [9]), in assay [5] (setting [10]) and in assay [6] (setting [11]) was above 10000 nM throughout.

Consider `Cc1cc(C(C)NC(=O)CCl)c2nc(N3CCCCC3)cc(=O)n2c1` (stereo not drawn) [Example 4-3, 2-chloro-N-(1-(7-methyl-4-oxo-2-(piperidin-1-yl)-4H-pyrido[1,2-a]pyrimidin-9-yl)ethyl)acetamide], for which the IC50 in assay [1] (setting [7]) was above 10000 nM; in assay [2] (setting [8]) it was 6140 nM; in assay [3] it was above 10000 nM; in assay [4] (setting [9]), above 10000 nM; in assay [5] (setting [10]), above 10000 nM; in assay [6] (setting [11]) it was 4840 nM.

As for `Cc1cc(C(C)N(C)C(=O)CCl)c2nc(N3CCCCC3)cc(=O)n2c1` (stereo not drawn) [Example 4-4, 2-chloro-N-methyl-N-(1-(7-methyl-4-oxo-2-(piperidin-1-yl)-4H-pyrido[1,2-a]pyrimidin-9-yl)ethyl)acetamide], the 50% inhibitory concentration (IC50) is above 10000 nM in assay [1] (setting [7]); 4290 nM in assay [2] (setting [8]); above 10000 nM in assay [3]; above 10000 nM in assay [4] (setting [9]); above 10000 nM in assay [5] (setting [10]); 3860 nM in assay [6] (setting [11]).

As to `CC(Nc1ccccc1C(=O)O)c1cc(C2CC2)cn2c(=O)cc(N3CCCCC3)nc12` (stereo not drawn) [Example 5-3, 2-((1-(7-cyclopropyl-4-oxo-2-(piperidin-1-yl)-4H-pyrido[1,2-a]pyrimidin-9-yl)ethyl)amino)benzoic acid], the IC50 in assay [1] (setting [7]) is above 10000 nM; in assay [2] (setting [8]) it was above 10000 nM; in assay [3] it was 3540 nM; in assay [4] (setting [9]) it was 32.1 nM; in assay [5] (setting [10]), above 10000 nM; in assay [6] (setting [11]), above 10000 nM.

`CCc1c(N2CCCCC2)nc2c(C(C)Nc3ccccc3C(=O)O)cc(C)cn2c1=O` (stereo not drawn) [Example 5-6, 2-((1-(3-ethyl-7-methyl-4-oxo-2-(piperidin-1-yl)-4H-pyrido[1,2-a]pyrimidin-9-yl)ethyl)amino)benzoic acid]: the IC50 in assay [1] (setting [7]) is 6520 nM; in assay [2] (setting [8]), above 10000 nM; in assay [3], 9050 nM; in assay [4] (setting [9]), 28.1 nM; in assay [5] (setting [10]), 3800 nM; in assay [6] (setting [11]) it was above 10000 nM.

In the case of `CC(Nc1ccccc1C(=O)O)c1cc(C(F)F)cn2c(=O)cc(N3CCCCC3)nc12` (stereo not drawn) [Example 5-7, 2-((1-(7-(difluoromethyl)-4-oxo-2-(piperidin-1-yl)-4H-pyrido[1,2-a]pyrimidin-9-yl)ethyl)amino)benzoic acid], the IC50 in assay [1] (setting [7]) is above 10000 nM; in assay [2] (setting [8]) it was 3280 nM; in assay [3], above 10000 nM; in assay [4] (setting [9]), 34.1 nM; in assay [5] (setting [10]), 2630 nM; in assay [6] (setting [11]), 2950 nM.

As to `CCc1cc(C(C)Nc2ccccc2C(=O)O)c2nc(N3CCCCC3)cc(=O)n2c1` (stereo not drawn) [Example 5-8, 2-((1-(7-ethyl-4-oxo-2-(piperidin-1-yl)-4H-pyrido[1,2-a]pyrimidin-9-yl)ethyl)amino)benzoic acid], the IC50 in assay [1] (setting [7]) was above 10000 nM; in assay [2] (setting [8]) it was above 10000 nM; in assay [3], above 10000 nM; in assay [4] (setting [9]), 17 nM; in assay [5] (setting [10]), 3780 nM; in assay [6] (setting [11]) it was above 10000 nM.

Consider `Cc1cc(C(C)Nc2ccccc2C(=O)O)c2nc(N3Cc4ccccc4C3)c(C)c(=O)n2c1` (stereo not drawn) [Example 5-9, 2-((1-(2-(isoindolin-2-yl)-3,7-dimethyl-4-oxo-4H-pyrido[1,2-a]pyrimidin-9-yl)ethyl)amino)benzoic acid], for which the IC50 in assay [1] (setting [7]) is 3500 nM; in assay [2] (setting [8]), above 10000 nM; in assay [3], 683 nM; in assay [4] (setting [9]) it was 21 nM; in assay [5] (setting [10]) it was 430 nM; in assay [6] (setting [11]), above 10000 nM.

As to `Cc1c(N2CCC(C)(C)CC2)nc2c(C(C)Nc3ccccc3C(=O)O)cccn2c1=O` (stereo not drawn) [Example 5-10, 2-((1-(2-(4,4-dimethylpiperidin-1-yl)-3-methyl-4-oxo-4H-pyrido[1,2-a]pyrimidin-9-yl)ethyl)amino)benzoic acid], the IC50 in assay [1] (setting [7]) was above 10000 nM; in assay [2] (setting [8]), above 10000 nM; in assay [3], 6120 nM; in assay [4] (setting [9]), 40.4 nM; in assay [5] (setting [10]), 1800 nM; in assay [6] (setting [11]), above 10000 nM.

Consider `Cc1c(N2CCCCC2)nc2c(C(C)Nc3ccccc3C(=O)O)cccn2c1=O` (stereo not drawn) [Example 5-11, 2-((1-(3-methyl-4-oxo-2-(piperidin-1-yl)-4H-pyrido[1,2-a]pyrimidin-9-yl)ethyl)amino)benzoic acid], for which the IC50 in assay [1] (setting [7]) was 3060 nM; in assay [2] (setting [8]) it was above 10000 nM; in assay [3], above 10000 nM; in assay [4] (setting [9]) it was 10.9 nM; in assay [5] (setting [10]) it was 731 nM; in assay [6] (setting [11]), above 10000 nM.

In the case of `Cc1cc(C(C)Nc2ccccc2C(=O)O)c2nc(C)cc(=O)n2c1` (stereo not drawn) [Example 6-1, 2-((1-(2,7-dimethyl-4-oxo-4H-pyrido[1,2-a]pyrimidin-9-yl)ethyl)amino)benzoic acid], the IC50 is above 10000 nM in assay [1] (setting [12]); above 10000 nM in assay [2] (setting [13]); above 10000 nM in assay [3]; 3370 nM in assay [4] (setting [14]); above 10000 nM in assay [5] (setting [15]); above 10000 nM in assay [6] (setting [16]).

`Cc1cc(C(C)Nc2ccccc2C(=O)O)c2nc(-c3ccccc3)cc(=O)n2c1` (stereo not drawn) [Example 7-1, 2-((1-(7-methyl-4-oxo-2-phenyl-4H-pyrido[1,2-a]pyrimidin-9-yl)ethyl)amino)benzoic acid]: the IC50 is 6420 nM in assay [1] (setting [12]); above 10000 nM in assay [2] (setting [13]); 6650 nM in assay [3]; 13.3 nM in assay [4] (setting [14]); 3140 nM in assay [5] (setting [15]); above 10000 nM in assay [6] (setting [16]).

Take `Cc1cc(C(C)Nc2ccccc2C(=O)O)c2nc(N3CCCCC3)c(C#N)c(=O)n2c1` (stereo not drawn) [Example 8-1, 2-((1-(3-cyano-7-methyl-4-oxo-2-(piperidin-1-yl)-4H-pyrido[1,2-a]pyrimidin-9-yl)ethyl)amino)benzoic acid]: the IC50 is 5540 nM in assay [1] (setting [7]); 9680 nM in assay [2] (setting [8]); 932 nM in assay [3]; 54 nM in assay [4] (setting [9]); 166 nM in assay [5] (setting [10]); above 10000 nM in assay [6] (setting [11]).
